Common to all, as to format: cell-based
In one experiment the test system is AKT. The experiment is described as follows: AKT ubiquitination assay (TUBE pulldown, western blot). The following applies: KU-19-19 cells, 3 uM of compound, 6 hrs. As to the method: For each assay condition. 5.0×10^6 KU-19-19 cells were seeded in 10 cm dish grown in RPMI (Invitrogen. Carlsbad. CA. USA) supplemented with 10% fetal bovine serum. Cells were incubated overnight at 37° C. in a humidified atmosphere containing 5% CO2. […]. Next day, media was removed and cells were rinsed with 0.1% FBS cell culture media. Then 10 mL of 0.1% FBS+RPMI containing 3 uM of compound was added to each plate and treated with compound for 6 hrs. Cells were washed 3× with PBS and placed on ice. 900 μL of lysis buffer (50 mM Tris-HCl pH 7.4, 150 mM NaCl. 1% NP-40, 1% Sodium deoxycholate. 2 mM EDTA, 10% Glycerol, 5 mM Iodoacetamide (dissolved in ddH2O, MCE, Cat #HY-34477), 1×HALT protease\phosphatase inhibitor (Pierce. Cat #78440), 1×PMSF (Sigma. Cat #93482-50ML-F), 5 mM 1.10 Phenanthroline (in DMSO, MCE, Cat #HY—W004544), 25 uM MG-132 (in DMSO) (MCE. Cat #HY-13259), 50 μM PR-619 (make it in DMSO) (MCE. Cat #HY-13814) and 1× Benzonase (Sigma. Cat #E8263) was added and incubated on ice for 3-5 min and then scraped and collected. Lysates were incubated on ice for 1 hr and vortexed every 15 minutes before spinning down at 14 000 g for 10 minutes. Supernatants were collected and flash frozen in Liquid nitrogen for 10 minutes and stored at −80 C until further used. Adjust volume of samples with lysis buffer to obtain 1 mg in total volume of 1 mL. Perform TUBES pulldown following manufacturer's procedure using TUBE1 (high capacity magnetic beads) (Cat #UM-0501M-1000. LifeSensors). Briefly, wash 150 μl beads per sample with 12× beads volume of PBST (0.1% Tweed-20) three times. Add 1 mL of protein lysate to beads and incubate for 4 hours rotating at 4 C. Wash 4× with 10× beads volume of lysis buffer and rotate for 3 minutes, then collect beads with magnet for 3 minutes before collecting buffer. Wash 1× with 5× beads volumes of PBS-T. Wash TUBEs with 100 μl wash buffer for 5 minutes on thermomixer set at 1400 rpm and 25 C. TUBE washing buffer/TUBE Elution buffer/TUBE Neutralization buffer (Cat #UM411. LifeSensors) Elute with 18 μl of TUBE elution buffer for 15 minutes on thermomixer set at 1400 rpm at 25 C, and then collect eluate and add 2 μl of neutralization buffer. Load 18 μl of pulldown sample and 10 μg of input samples onto gel for western blot using standard methods with following antibodies: AKT (pan) (C67E7) (CST. Cat #4691S). β-Actin antibody (Cat #A1978, sigma) (Dilution. 1:2000) Anti-rabbit IgG. HRP-linked Antibody (CST. Cat #7074S) (Dilution, 1:2000)

A further experiment has as its target T1, AKT1 E17 (Homo sapiens, UniProt P31749, E17K).
T1 construct: expressed in transfected cells; host or cells: KU-19-19
As to the kind of experiment: AKT plasma membrane translocation assay (AKT1 E17K-SmBiT / LCK1-LgBiT luminescence). The conditions noted are these: KU-19-19 cells transfected with AKT1E17K-SmBIT and LCK1-LgBiT, read up to 1 hr. As to the method: AKT plasma membrane translocation assay
Seed 1.5×10^6 KU-19-19 cells in 10 cm dish. Transfect cells at 70% cell confluency with 5 ug AKTIE17K-SmBIT and 0.5 ug LCK1-LgBiT with Jet-Optimus transfection reagent. Incubate for 4-5 hours at 37c 5% CO2 TC incubator. Split and seed 10K cells in 40 ul media per well in 384 well plate and incubate over night at 37° C. CO2 free TC incubator. Add 10 ul of 5× Vivazine substrate (prepared in CO2 independent medium) to cells and shake palte to mix for 30 seconds. Read Luminescence for 100 minutes until signal is stable (1 read per minute). Add 50 nl/well of 3 uM compound stock to cells.

For the next experiment, the system named is KU1919.1. The experiment is described as follows: Cell Titer Glo (CTG) proliferation assay, KU1919. The conditions noted are these: Homo sapiens, KU-19-19; KU1919.1 cells, 72.0 hrs.; read-out: AVE CTG Proliferation KU1919.1 72.0 hrs. In a few lines: (§1)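 After overnight seeding at 37 °C, 5% CO2, cells were exposed to compound for 3 days. Viability read by CellTiter-Glo luminescence after 30 min at room temperature.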

The next experiment relates to MDAMB231.1. As to the kind of experiment: Cell Titer Glo (CTG) proliferation assay, MDA-MB-231. The following applies: Homo sapiens, MDA-MB-231; MDAMB231.1 cells, 72 hrs.; read-out: AVE CTG Proliferation MDAMB231.1 72 hrs. As to the method: Seed cells in 40 μL of cell culture media into each well of 384-well cell culture plate, spin them at room temperature at 1,000 RPM for 1 minute and then transfer the plates into 37° C. 5% CO2 incubator overnight. Next day, treat cells with 40 nL of diluted compound and return to incubator. After compound treatment for 3 days, Add 30 μL of CellTiter-Glo reagent (Promega) into each well to be detected. Then place the plates at room temperature for 30 min followed by reading on EnVision. Inhibition activity calculated as % DMSO=100×(LumSample-Lum low control)/(Lum high control-Lum low control) where high control is from cells treated with 0.1% DMSO and Low control obtained from PBS only. Use XLFit (equation 201) to calculate IC50 (A+ ((B−A)/(1[…]((x/C)^D)))) where A: Bottom, B: Top, C: IC50, D: Slope.

Another experiment concerns MDAMB468.1. As to the kind of experiment: Cell Titer Glo (CTG) proliferation assay, MDA-MB-468. The conditions noted are these: Homo sapiens, MDA-MB-468; MDAMB468.1 cells, 72.0 hrs.; read-out: AVE CTG Proliferation MDAMB468.1 72.0 hrs. The essentials:
as §1

T1 sequence (P31749 whole entry E17K): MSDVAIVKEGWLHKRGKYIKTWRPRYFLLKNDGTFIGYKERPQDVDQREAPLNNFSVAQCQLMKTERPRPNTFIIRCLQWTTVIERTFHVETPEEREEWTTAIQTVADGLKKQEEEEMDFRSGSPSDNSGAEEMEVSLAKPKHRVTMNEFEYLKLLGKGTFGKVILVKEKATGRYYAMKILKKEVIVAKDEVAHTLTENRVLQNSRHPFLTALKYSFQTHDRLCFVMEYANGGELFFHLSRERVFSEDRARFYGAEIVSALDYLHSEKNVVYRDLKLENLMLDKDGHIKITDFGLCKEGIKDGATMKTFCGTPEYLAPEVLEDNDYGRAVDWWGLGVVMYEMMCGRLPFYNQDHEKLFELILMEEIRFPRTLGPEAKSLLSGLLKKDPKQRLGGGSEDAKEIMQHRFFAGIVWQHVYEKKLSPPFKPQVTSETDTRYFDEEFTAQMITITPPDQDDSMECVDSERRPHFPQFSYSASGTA

Turning to `CCOc1cc(OC)ccc1CNCC(=O)N1CCCC(c2cccc(C(=O)N[C@@H](C(=O)N3CCN(CC4CCN(CC(=O)N5CCN(CC[C@H](NC(=O)C6(N)CCN(c7ncnc8[nH]ccc78)CC6)c6ccc(Cl)cc6)CC5)CC4)CC3)C3CCCCC3)c2)C1` (some centres unmarked) [Compound I-46], the “Reduced AKT ubiquitination relative to PBM” value in the experiment on AKT is reported as “Yes”. Besides, the “Reduced AKT1 E17 plasma membrane translocation relative to PBM” value at AKT1 E17 was “Yes”.
As for `NC1(C(=O)N[C@@H](CCN2CCN(C(=O)CN3CCC(OC4CCN(C(=O)[C@H](NC(=O)c5cccc(C6CN(C(=O)CNCc7ccc(F)cc7F)C6)c5)C5CCCCC5)CC4)CC3)CC2)c2ccc(Cl)cc2)CCN(c2ncnc3[nH]ccc23)CC1` [Compound I-242], the “Reduced AKT ubiquitination relative to PBM” value with AKT is “Yes”. Moreover, the “Reduced AKT1 E17 plasma membrane translocation relative to PBM” value on AKT1 E17 is reported as “Yes”. The IC50 with KU1919.1 was in the range of 500 to 1000 nM; with MDAMB231.1, 1000 to 5000 nM; in the experiment with MDAMB468.1 it was 1000 to 5000 nM.
For `NC1(C(=O)N[C@@H](CCN2CCN(C(=O)CN3CCC(OC4CCN(C(=O)[C@H](NC(=O)c5cccc(C6CCCN(C(=O)C7CC7)C6)c5)C5CCCCC5)CC4)CC3)CC2)c2ccc(Cl)cc2)CCN(c2ncnc3[nH]ccc23)CC1` (some centres unmarked) [Compound I-254], in the experiment on AKT, the “Reduced AKT ubiquitination relative to PBM” value is “Yes”. Moreover, the “Reduced AKT1 E17 plasma membrane translocation relative to PBM” value on AKT1 E17 was “Yes”. Besides, the IC50 in the experiment on KU1919.1, in the experiment with MDAMB231.1 and in the experiment on MDAMB468.1 was 1000 to 5000 nM throughout.
On to `CC(C)(C)OC(=O)N[C@@H](C(=O)N1CCC(OC2CCN(CC(=O)N3CCN(CC[C@H](NC(=O)C4(N)CCN(c5ncnc6[nH]ccc56)CC4)c4ccc(Cl)cc4)CC3)CC2)CC1)C1CCCCC1` [Compound I-312], for which the “Reduced AKT ubiquitination relative to PBM” value in the experiment with AKT was “Yes”. Also, the “Reduced AKT1 E17 plasma membrane translocation relative to PBM” value at AKT1 E17 is given as “Yes”. In addition, the IC50 in the experiment with KU1919.1, with MDAMB231.1 and with MDAMB468.1 was 1000 to 5000 nM throughout.
For the molecule `CC1(C(=O)N2CCCC(c3cccc(C(=O)N[C@@H](C(=O)N4CCC(OC5CCN(CC[C@H](NC(=O)C6(N)CCN(c7ncnc8[nH]ccc78)CC6)c6ccc(Cl)cc6)CC5)CC4)C4CCCCC4)c3F)C2)CC1` (some centres unmarked) [Compound I-282], the IC50 in the experiment with KU1919.1, with MDAMB231.1 and in the experiment with MDAMB468.1 was 1000 to 5000 nM in each case.
In the case of `CCc1cccc(-c2cnc(C(=O)N3CCN(CC45CCC(NCC(=O)NCCNC[C@@H](C(=O)N6CCN(c7cccc8c7[C@H](C)C[C@H]8O)CC6)c6ccc(Cl)cc6)(CC4)CO5)CC3)c(NC(=O)OC(C)(C)C)c2)c1` [Compound I-305], the IC50 with KU1919.1, in the experiment on MDAMB231.1 and with MDAMB468.1 was 1000 to 5000 nM throughout.
Take `NC1(C(=O)N[C@@H](CCN2CCN(C(=O)CN3CCC(OC4CCN(C(=O)[C@H](NC(=O)c5cccc(C6CCCN(C(=O)CNC7CC7)C6)c5)C5CCCCC5)CC4)CC3)CC2)c2ccc(Cl)cc2)CCN(c2ncnc3[nH]ccc23)CC1` (some centres unmarked) [Compound I-259]: the IC50 in the experiment on KU1919.1, with MDAMB231.1 and in the experiment on MDAMB468.1 was 1000 to 5000 nM each time.
On to `C[C@@H]1C[C@@H](O)c2ncnc(N3CCN(C(=O)C(CN4CCC(CN5CCN(C(=O)[C@H](NC(=O)c6cccc([C@H]7CCCN(C(=O)CNCc8ccc(F)cc8F)C7)c6)C6CCCCC6)CC5)CC4)c4ccc(Cl)cc4)CC3)c21` (some centres unmarked) [Compound I-201], for which the IC50 lay within 500 to 1000 nM in the experiment on KU1919.1, 1000 to 5000 nM in the experiment on MDAMB231.1 and 1000 to 5000 nM in the experiment on MDAMB468.1.

The values above are taken from patent US20250171465A1, “AKT INHIBITORS” (Stablix, Inc., priority 2023, published 2025).
